The source of these data is patent US20070270475A1, “4-Methoxy-Pyrrolidine-2-Carboxylic Acid Compounds and Derivatives Thereof as Hepatitis C Virus Inhibitors” (priority 2004, published 2007).

The experiment concerns the target T1, HCV RNA Polymerase, recombinant full-length NS5B, genotype 1b (Hepatitis C virus genotype 1b, UniProt Q9WMX2).
T1 construct: Recombinant full-length NS5B; made in house; host or cells: baculovirus (insect cells)
Description: In vitro HCV RNA-dependent RNA polymerase inhibition assay, genotype 1b full-length enzyme. The format is biochemical, HCV genotype 1b. The settings on record: genotype 1b full-length NS5B, 4 nM enzyme. The protocol:
In Vitro Detection of inhibitors of HCV RNA-Dependent RNA Polymerase Activity
Incorporation of [^33P]-GMP into RNA was followed by absorption of the biotin labelled RNA polymer by streptavidin containing SPA beads. A synthetic template consisting of biotinylated 13mer-oligoG hybridised to polyrC was used as a homopolymer substrate.
b) Genotype 1b Full-Length Enzyme
Reaction Conditions were 0.5 μM [^33P]-GTP (20 Ci/mMol), 1 mM Dithiothreitol, 20 mM MgCl2, 5 mM MnCl2, 20 mM Tris-HCl, pH7.5, 1.6 μg/mL polyC/0.256 μM biotinylated oligoG13, 10% glycerol, 0.01% NP-40, 0.2 u/μL RNasin and 50 mM NaCl.
HCV RNA Polymerase (Recombinant full-length NS5B (Lohmann et al, J. Virol. 71 (11), 1997, 8416. ‘Biochemical properties of hepatitis C virus NS5B RNA-dependent RNA polymerase and identification of amino acid sequence motifs essential for enzymatic activity’) expressed in baculovirus and purified to homogeneity) was added to 4 nM final concentration.
5× concentrated assay buffer mix was prepared using 1M MnCl2 (0.25 mL), glycerol (2.5 mL), 10% NP-40 (0.025 mL) and Water (7.225 mL), Total 10 mL.
2× concentrated enzyme buffer contained 1M-Tris-HCl, pH7.5 (0.4 mL), 5M NaCl (0.2 mL), 1M-MgCl2(0.4 mL), glycerol (1 mL), 10% NP-40 (10 μL), 1M DTT (20 μL) and water (7.97 mL), Total 10 mL.
Substrate Mix was prepared using 5x Concentrated assay Buffer mix (4 μL), [^33P]-GTP (10 μCi/μL, 0.02 μL), 25 μM GTP (0.4 μL), 40 μ/μL RNasin (0.1 μL), 20 μg/mL polyrC/biotinylated-oligorG (1.6 μL), and Water (3.94 μL), Total 10 μL.
Enzyme Mix was prepared by adding 1 mg/ml full-length NS5B polymerase (1.5 μL) to 2.81 mL 2×-concentrated enzyme buffer.
The Assay was set up using compound (1μL), Substrate Mix (10 μL), and Enzyme Mix (added last to start reaction) (10 μL), Total 21 μL.
The reaction was performed in a U-bottomed, white, 96-well plate. The reaction was mixed on a plate-shaker, after addition of the Enzyme, and incubated for 1 h at 22° C. After this time, the reaction was stopped by addition of 40 μL 1.875 mg/ml streptavidin SPA beads in 0.1 M EDTA. The beads were incubated with the reaction mixture for 1 h at 22° C. after which 120 μL 0.1 M EDTA in PBS was added. The plate was sealed, mixed centrifuged and incorporated radioactivity determined by counting in a Trilux (Wallac) or Topcount (Packard) Scintillation Counter.
After subtraction of background levels without enzyme, any reduction in the amount of radioactivity incorporated in the presence of a compound, compared to that in the absence, was taken as a measure of the level of inhibition. Ten concentrations of compounds were tested in three- or fivefold dilutions. From the counts, percentage of inhibition at highest concentration tested or IC50s for the compounds were calculated using GraFit 3, GraFit 4 or GraFit 5 (Erithacus Software Ltd.) software packages or a data evaluation macro for Excel based on XLFit software (IDBS).

Usually IC50 stands for the concentration that inhibits the measured activity by half.

T1 sequence (Q9WMX2 2420-3010): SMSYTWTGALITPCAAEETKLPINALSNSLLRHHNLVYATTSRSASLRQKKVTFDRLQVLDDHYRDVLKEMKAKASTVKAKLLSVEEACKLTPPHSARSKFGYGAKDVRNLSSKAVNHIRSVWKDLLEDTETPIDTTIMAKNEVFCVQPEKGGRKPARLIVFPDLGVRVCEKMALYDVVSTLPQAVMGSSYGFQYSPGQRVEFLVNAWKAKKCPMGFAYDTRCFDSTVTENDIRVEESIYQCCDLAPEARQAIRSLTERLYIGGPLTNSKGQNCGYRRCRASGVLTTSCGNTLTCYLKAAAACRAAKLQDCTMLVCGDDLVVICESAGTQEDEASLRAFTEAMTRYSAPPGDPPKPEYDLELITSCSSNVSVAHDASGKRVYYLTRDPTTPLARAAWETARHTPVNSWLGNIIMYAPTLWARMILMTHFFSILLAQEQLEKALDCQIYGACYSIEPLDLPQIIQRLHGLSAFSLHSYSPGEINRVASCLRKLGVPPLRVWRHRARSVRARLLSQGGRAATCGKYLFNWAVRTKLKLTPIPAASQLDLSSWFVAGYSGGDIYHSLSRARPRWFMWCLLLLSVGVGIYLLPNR

For `COC[C@H]1C[C@@](Cc2cscn2)(C(=O)O)N(C(=O)c2ccc(C(C)(C)C)c(OC)c2)[C@H]1c1nccs1` (racemic) [Example 3, rel-(2R,4S,5R)-1-(3-Methoxy-4-tert-butylbenzoyl)-4-(methoxymethyl)-5-(1,3-thiazol-2-yl)-2-(1,3-thiazol-4-ylmethyl)pyrrolidine-2-carboxylic acid], the IC50 is below 200 nM.

In the case of `COC[C@H]1C[C@@](CC(C)C)(C(=O)O)N(C(=O)c2ccc(C(C)(C)C)c(OC)c2)[C@H]1c1ncc(C)s1` (racemic) [Compound C, rel-(2S,4S,5R)-2-isobutyl-1-(3-methoxy-4-tert-butylbenzoyl)-4-methoxymethyl-5-(5-methyl-1,3-thiazol-2-yl)pyrrolidine-2-carboxylic acid, reference compound], the IC50 was above 500 nM.

Take `COC[C@H]1C[C@@](CC(C)C)(C(=O)O)N(C(=O)c2ccc(C(C)(C)C)c(OC)c2)[C@H]1c1nccs1` (racemic) [Compound A, rel-(2S,4S,5R)-2-isobutyl-1-(3-methoxy-4-tert-butylbenzoyl)-4-methoxymethyl-5-(1,3-thiazol-2-yl)pyrrolidine-2-carboxylic acid, reference compound]: the half-maximal inhibitory concentration (IC50) is above 500 nM.

As to `COC[C@H]1C[C@@](Cc2cscn2)(C(=O)O)N(C(=O)c2ccc(C(C)(C)C)c(OC)c2)[C@H]1c1ncc(C)s1` (racemic) [Example 1, rel-(2R,4S,5R)-1-(3-Methoxy-4-tert-butylbenzoyl)-4-(methoxymethyl)-5-(5-methyl-1,3-thiazol-2-yl)-2-(1,3-thiazol-4-ylmethyl)pyrrolidine-2-carboxylic acid], the IC50 is below 200 nM.

As to `COC[C@H]1C[C@@](Cc2ccccc2)(C(=O)O)N(C(=O)c2ccc(C(C)(C)C)c(OC)c2)[C@H]1c1nccs1` (racemic) [Compound E, rel-(2R,4S,5R)-2-benzyl-1-(3-methoxy-4-tert-butylbenzoyl)-4-methoxymethyl-5-(1,3-thiazol-2-yl)-pyrrolidine-2-carboxylic acid, reference compound], the IC50 fell in the range of 200 to 500 nM.

`COC[C@H]1C[C@@](Cn2cccn2)(C(=O)O)N(C(=O)c2ccc(C(C)(C)C)c(OC)c2)[C@H]1c1nccs1` (racemic) [Example 6, rel-(2R,4S,5R)-1-(3-Methoxy-4-tert-butylbenzoyl)-4-(methoxymethyl)-2-(1H-pyrazol-1-ylmethyl)-5-(1,3-thiazol-2-yl)pyrrolidine-2-carboxylic acid]: the half-inhibitory concentration (IC50) is below 200 nM.

As for `COC[C@H]1C[C@@](Cn2cccn2)(C(=O)O)N(C(=O)c2ccc(C(C)(C)C)c(OC)c2)[C@H]1c1ncc(C)s1` (single isomer, unassigned; enantiomer a) [Example 11], the IC50 was below 200 nM.

As for `COC[C@H]1C[C@@](Cc2cscn2)(C(=O)O)N(C(=O)c2ccc(C(C)(C)C)c(OC)c2)[C@H]1c1ncc(C)s1` (single isomer, unassigned; enantiomer a) [Example 2], the 50% inhibitory concentration (IC50) is below 200 nM.

Take `COC[C@H]1C[C@@](Cc2cscn2)(C(=O)O)N(C(=O)c2ccc(C(C)(C)C)c(OC)c2)[C@H]1c1nccs1` (single isomer, unassigned; enantiomer a) [Example 12]: the IC50 was below 200 nM.

With `COC[C@H]1C[C@@](Cc2ccsn2)(C(=O)O)N(C(=O)c2ccc(C(C)(C)C)c(OC)c2)[C@H]1c1nccs1` (racemic) [Example 4, rel-(2R,4S,5R)-1-(3-Methoxy-4-tert-butylbenzoyl)-4-(methoxymethyl)-5-(1,3-thiazol-2-yl)-2-(1,2-thiazol-3-ylmethyl)pyrrolidine-2-carboxylic acid], the half-inhibitory concentration (IC50) is below 200 nM.

Turning to `COC[C@H]1C[C@@](Cc2ccsn2)(C(=O)O)N(C(=O)c2ccc(C(C)(C)C)c(OC)c2)[C@H]1c1nccs1` (single isomer, unassigned; enantiomer a) [Example 5], the IC50 was below 200 nM.

In the case of `COCC1CC(CC(C)C)(C(=O)O)N(C(=O)c2ccc(C(C)(C)C)c(OC)c2)C1c1ncc(C)s1` (single isomer, unassigned; enantiomer a) [Compound D, reference compound], the IC50 was 200 to 500 nM.

Regarding `COC[C@H]1C[C@@](Cc2nccs2)(C(=O)O)N(C(=O)c2ccc(C(C)(C)C)c(OC)c2)[C@H]1c1ncc(C)s1` (racemic) [Example 8, rel-(2R,4S,5R)-1-(3-Methoxy-4-tert-butylbenzoyl)-4-(methoxymethyl)-5-(5-methyl-1,3-thiazol-2-yl)-2-(1,3-thiazol-2-ylmethyl)pyrrolidine-2-carboxylic acid], the IC50 was below 200 nM.

Consider `COC[C@H]1C[C@@](Cn2cccn2)(C(=O)O)N(C(=O)c2ccc(C(C)(C)C)c(OC)c2)[C@H]1c1ncc(C)s1` (racemic) [Example 10, rel-(2R,4S,5R)-1-(3-Methoxy-4-tert-butylbenzoyl)-4-(methoxymethyl)-5-(5-methyl-1,3-thiazol-2-yl)-2-(1H-pyrazol-1-ylmethyl)pyrrolidine-2-carboxylic acid], for which the IC50 was below 200 nM.

On to `COC[C@H]1C[C@@](Cc2ccsn2)(C(=O)O)N(C(=O)c2ccc(C(C)(C)C)c(OC)c2)[C@H]1c1ncc(C)s1` (racemic) [Example 9, rel-(2R,4S,5R)-1-(3-Methoxy-4-tert-butylbenzoyl)-4-(methoxymethyl)-5-(5-methyl-1,3-thiazol-2-yl)-2-(1,2-thiazol-3-ylmethyl)pyrrolidine-2-carboxylic acid], for which the half-maximal inhibitory concentration (IC50) is below 200 nM.

For `COC[C@H]1C[C@@](CC(C)C)(C(=O)O)N(C(=O)c2ccc(C(C)(C)C)c(OC)c2)[C@H]1c1nccs1` [Compound B, (2S,4S,5R)-2-isobutyl-1-(3-methoxy-4-tert-butylbenzoyl)-4-methoxymethyl-5-(1,3-thiazol-2-yl)pyrrolidine-2-carboxylic acid, reference compound], the IC50 fell in the range of 200 to 500 nM.

On to `COC[C@H]1C[C@@](Cn2cccn2)(C(=O)O)N(C(=O)c2ccc(C(C)(C)C)c(OC)c2)[C@H]1c1nccs1` (single isomer, unassigned) [Example 7], for which the IC50 was below 200 nM.
